According to patent publication US20240239818A1, “COMPOUNDS AND COMPOSITIONS COMPRISING FLUOROPHORES FOR USE IN VISUALIZATION AND PURIFICATION OR MANIPULATION” (priority 2022, published 2024):
Like-named read-outs stand apart in the source and are kept apart here.

Legend:
[1] = 1-Photon spectroscopy and quantum yield of HaloTag® ligands; type: physicochemical; settings: free ligand, 10 mM HEPES pH 7.3
Experimental: 1-Photon spectroscopy of HaloTag® ligands and HaloTag® conjugates. […] All measurements were taken at ambient temperature (22 ±2° C.). Absorption spectra were recorded on a Cary Model 100 spectrometer (Agilent) using 1-cm path length 1.0-mL quartz microcuvettes from Starna Cells. Fluorescence spectra were recorded on a Cary Eclipse fluorometer (Varian) using 1-cm path length 3.5-mL quartz cuvettes (Starna Cells). As before,^13, 23, 32, 45 HaloTag® protein was used as a 100 μM solution in 1×TBS. HaloTag® ligands 12-15 (5 μM) were dissolved in 10 mM HEPES, pH 7.3, containing 0.1 mg/mL CHAPS. An aliquot of HaloTag® protein (1.5 equiv) was added, and the resulting mixture was incubated until a consistent absorbance signal was observed (60-120 min). To measure the fold-increase of absorbance upon HaloTag® binding, a “no HaloTag®” control experiment was performed where an equivalent volume of TBS blank was added in place of the protein. Reported values for extinction coefficient (ε) are averages of at least two measurements.
Quantum yield determination. All reported absolute fluorescence quantum yield values (Φf) were measured in the laboratory under identical conditions using a Quantaurus-QY spectrometer (model C11374, Hamamatsu). This instrument uses an integrating sphere to determine photons absorbed and emitted by a sample. Measurements were performed using dilute samples (absorbance<0.1), and self-absorption corrections were performed using the instrument software.^46 Reported values are averages of at least two measurements.

[2] = type: physicochemical
Experimental: Determination of logD7.4. The log of distribution coefficients at pH 7.4 was determined in octanol-phosphate-buffered saline (PBS) using the miniaturized shake flask setup described previously.^36, 47 Briefly, 150 mL each of octanol and PBS pH 7.4 were stirred vigorously for 12-16 h. The layers were allowed to stand for at least 24 h for phase separation. The separated layers were collected and served as PBS saturated with octanol (PBS*) and octanol saturated with PBS (octanol*). Stock solutions (1 mM or 5 mM) of ligands were prepared in DMSO and diluted in PBS* to obtain 1 μM or 10 μM (3-5 mL) of the standard (std). This standard was used to prepare appropriate dilutions using octanol*, in triplicate, in 2-mL glass vials. The leftover standard was used to determine the standard concentration (Cstd). The vials were vortexed for 1 min and shaken horizontally at 700 rpm for 2 h. The vials were then shaken upright at 150 rpm for 2 h to allow the phases to separate. The octanol* layer was pipetted out, and the PBS* layer was used for further analyses. The concentrations of ligands in the standard and PBS* (CPBS*) were determined via fluorescence measurements of 200 μL of PBS* or std in 96-well plates on the Cytation 5 Multimode Plate Reader (BioTek). For Si-rhodamine containing ligands, 2-20 μL of trifluoroacetic acid was added to each well of the 96-well plate prior to the fluorescence measurements. Reported values are averages of at least two measurements. The logD7.4 was obtained as described previously using equation 2:
[formula] • where Cstd is the standard concentration in PBS, CPBS* is the concentration in PBS after partitioning, r is the dilution factor of the standard solution, VPBS* is the volume of PBS used in the partitioning, and Voctanol* is the volume of octanol used in the partitioning.

[3] = tested on: HaloTag®-histone H2B fusion protein; type: cell-based; settings: for time to reach saturation of labeling: 200 nM, live U2OS cells expressing HaloTag®-H2B, 0-4 h
Experimental: Dye loading kinetics. Live U2OS.H2B.HaloTag® stable cells were labeled over a time course of 0-4 h with 200 nM of biotin-JF549-HaloTag® ligand (12), biotin-JF608-HaloTag® ligand (13), biotin-JF646-HaloTag® ligand (14), or biotin-JF635-HaloTag® ligand (15) at 37° C. Cells were then washed 3× with dye-free media, fixed with 4% paraformaldehyde in 0.1 M phosphate buffer, pH 7.4 for 15 min at 37° C. Confocal imaging was performed on a Leica SP8 with an HC PL APO CS2 20×/0.75 immersion objective using the tunable white light laser (WLL) to excite dyes at their λabs in constant power mode. Fluorescence was quantified as the average integrated density of background corrected nuclear signals from confocal image stack projections analyzed in FIJI; n=100 nuclear signals per compound.

| Compound | extinction coefficient (ε) [1] | fluorescence quantum yield (Φf) [1] | λabs [1] [nm] | λem [1] [nm] | logD7.4 ([2]; pH 7.4) | membrane permeability [3] | logD7.4 ([2]; octanol-PBS pH 7.4) | time to reach saturation of labeling [3] |
| --- | --- | --- | --- | --- | --- | --- | --- | --- |
| Biotin-JF549-HaloTag® ligand [compound 12] | 92,000 M^−1cm^−1 | 0.90 | 552 | 575 | 0.07 | negligible membrane permeability |  |  |
| C[Si]1(C)C2=CC(=[N+]3CC(F)(C(=O)NCCOCCOCCNC(=O)CCCC[C@@H]4SC[C@@H]5NC(=O)N[C@@H]54)C3)C=CC2=C(c2cc(C(=O)NCCOCCOCCCCCCCl)ccc2C(=O)[O-])c2ccc(N3CC(F)C3)cc21 (stereo partly shown) [compound 15, Biotin-JF635-HaloTag® ligand] | 2,900 M^−1cm^−1 | 0.60 | 636 | 655 |  |  | 3.6 | approximately 1 h |
| C[Si]1(C)c2cc(N3CC(F)C3)ccc2C2(OC(=O)c3ccc(C(=O)NCCOCCOCCCCCCCl)cc32)c2ccc(N3CC(F)C3)cc21 [5HTL, JF635-HaloTag® ligand, reference compound] |  |  |  |  |  |  | 3.82 |  |
| C[Si]1(C)C2=CC(=[N+]3CC(C(=O)NCCOCCOCCNC(=O)CCCC[C@@H]4SC[C@@H]5NC(=O)N[C@@H]54)C3)C=CC2=C(c2cc(C(=O)NCCOCCOCCCCCCCl)ccc2C(=O)[O-])c2ccc(N3CCC3)cc21 (stereo partly shown) [compound 14, Biotin-JF646-HaloTag® ligand] | 34,000 M^−1cm^−1 | 0.56 | 647 | 666 |  |  | 3.06 | approximately 1 h |
